# Measurements reported in patent publication US20220056043A1, “NITROGEN-CONTAINING FUSED CYCLIC COMPOUND, PREPARATION METHOD THEREFOR AND USE THEREOF” (SICHUAN KELUN-BIOTECH BIOPHARMACEUTICAL CO., LTD., priority 2019, published 2022).
# pIC50: −log10 of the molar value.
# What was measured:
# hERG potassium channel = hERG potassium channel (Homo sapiens, UniProt Q12809); assay: hERG test, Predictor hERG Fluorescence Polarization Assay Kit; assay type: binding; set-up: expressed in transfected cells; host or cells: HEK-293; details: test concentrations 1 μM and 10 μM
# Chain of hERG potassium channel (Q12809 whole entry): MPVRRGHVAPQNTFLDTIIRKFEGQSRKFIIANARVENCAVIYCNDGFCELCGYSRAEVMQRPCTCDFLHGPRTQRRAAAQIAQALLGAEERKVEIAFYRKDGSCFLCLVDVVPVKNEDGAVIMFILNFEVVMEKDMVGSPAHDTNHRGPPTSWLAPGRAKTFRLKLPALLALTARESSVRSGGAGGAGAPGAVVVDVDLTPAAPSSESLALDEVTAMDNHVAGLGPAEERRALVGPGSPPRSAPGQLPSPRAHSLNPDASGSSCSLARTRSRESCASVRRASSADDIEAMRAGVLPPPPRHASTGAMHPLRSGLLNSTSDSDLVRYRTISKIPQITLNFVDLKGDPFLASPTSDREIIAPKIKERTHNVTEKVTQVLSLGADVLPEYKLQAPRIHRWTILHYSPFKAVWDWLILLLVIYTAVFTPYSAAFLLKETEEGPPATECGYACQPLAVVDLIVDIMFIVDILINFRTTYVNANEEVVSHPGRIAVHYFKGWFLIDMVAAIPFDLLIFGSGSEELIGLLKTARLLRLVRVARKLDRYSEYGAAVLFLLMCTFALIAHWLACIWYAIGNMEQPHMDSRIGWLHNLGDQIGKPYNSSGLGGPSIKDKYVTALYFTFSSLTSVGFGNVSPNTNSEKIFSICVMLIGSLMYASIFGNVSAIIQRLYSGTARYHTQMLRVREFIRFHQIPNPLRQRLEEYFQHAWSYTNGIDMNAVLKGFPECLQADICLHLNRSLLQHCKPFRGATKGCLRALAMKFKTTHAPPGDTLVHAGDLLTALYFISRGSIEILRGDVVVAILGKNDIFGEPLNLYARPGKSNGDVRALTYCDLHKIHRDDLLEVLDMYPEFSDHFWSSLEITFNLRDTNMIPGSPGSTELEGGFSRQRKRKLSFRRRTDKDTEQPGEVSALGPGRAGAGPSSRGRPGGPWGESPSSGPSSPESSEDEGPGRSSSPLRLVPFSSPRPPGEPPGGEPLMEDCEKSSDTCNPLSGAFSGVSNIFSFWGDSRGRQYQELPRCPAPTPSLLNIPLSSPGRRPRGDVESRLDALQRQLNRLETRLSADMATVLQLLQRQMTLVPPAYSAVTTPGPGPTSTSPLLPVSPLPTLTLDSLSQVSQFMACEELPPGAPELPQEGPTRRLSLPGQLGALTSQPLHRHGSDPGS
# Description: Experimental Example 5: hERG Test
# 1. Predictor™ hERG Fluorescence Polarization Assay Kit (ThermoFisher) was used to test the inhibitory effect of the compounds on hERG potassium channel according to the instructions of the kit.
# hNLRP3 inflammasome = target: T1, hNLRP3 inflammasome (Homo sapiens, UniProt Q96P20); assay: Agonistic effect on the expression of IL-1β in THP-1 cells after PMA-induced differentiation (HTRF); assay type: cell-based; details: IL-1β level, PMA-differentiated THP-1 cells, 6 hours
# T1 construct: endogenous in cells; host or cells: THP-1 cells, PMA-differentiated
# T1 sequence (Q96P20 whole entry): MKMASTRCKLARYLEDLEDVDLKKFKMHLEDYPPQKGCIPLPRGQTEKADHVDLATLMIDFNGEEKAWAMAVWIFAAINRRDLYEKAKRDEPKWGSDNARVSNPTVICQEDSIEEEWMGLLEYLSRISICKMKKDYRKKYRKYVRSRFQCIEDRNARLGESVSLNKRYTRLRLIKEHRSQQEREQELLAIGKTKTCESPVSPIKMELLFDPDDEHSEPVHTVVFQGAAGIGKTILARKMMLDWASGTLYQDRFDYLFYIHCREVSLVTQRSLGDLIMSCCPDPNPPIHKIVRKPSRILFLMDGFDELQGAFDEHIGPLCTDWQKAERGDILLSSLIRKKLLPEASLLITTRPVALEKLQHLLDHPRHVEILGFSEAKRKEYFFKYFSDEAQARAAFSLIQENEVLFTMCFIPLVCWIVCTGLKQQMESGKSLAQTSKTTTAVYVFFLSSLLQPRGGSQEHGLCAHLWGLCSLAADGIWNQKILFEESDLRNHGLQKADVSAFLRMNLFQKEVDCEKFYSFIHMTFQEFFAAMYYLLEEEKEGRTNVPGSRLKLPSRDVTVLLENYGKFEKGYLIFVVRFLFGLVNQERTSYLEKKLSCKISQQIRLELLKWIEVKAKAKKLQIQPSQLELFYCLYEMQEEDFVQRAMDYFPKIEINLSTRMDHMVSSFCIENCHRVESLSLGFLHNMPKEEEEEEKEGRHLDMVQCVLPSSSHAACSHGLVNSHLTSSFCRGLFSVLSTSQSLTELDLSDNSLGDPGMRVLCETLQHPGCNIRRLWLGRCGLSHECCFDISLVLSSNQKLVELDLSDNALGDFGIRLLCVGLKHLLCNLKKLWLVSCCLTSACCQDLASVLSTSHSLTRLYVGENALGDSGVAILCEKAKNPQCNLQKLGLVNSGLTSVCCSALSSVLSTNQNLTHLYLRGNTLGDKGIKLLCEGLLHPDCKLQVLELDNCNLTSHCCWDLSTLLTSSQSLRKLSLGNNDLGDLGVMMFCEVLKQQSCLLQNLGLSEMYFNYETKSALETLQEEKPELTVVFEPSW
# Method in brief: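 THP-1 cells differentiated with 1 μM PMA for 24 h, then replated at 1×10^5 cells/well in RPMI 1640 with 2% FBS. Compounds added for 6 h at 37 °C, 5% CO2. Supernatant IL-1β measured by HTRF; EC50 from four-parameter variable-slope fit.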
# CYP3A4 = target: T2, CYP3A4 (Homo sapiens, UniProt P08684); assay: CYP enzyme inhibition test, Vivid CYP3A4 Red Screening Kit; assay type: in vitro ADME; details: for inhibitory effect on CYP3A4: conclusion in words
# T2 construct: purchased
# T2 sequence (P08684 whole entry): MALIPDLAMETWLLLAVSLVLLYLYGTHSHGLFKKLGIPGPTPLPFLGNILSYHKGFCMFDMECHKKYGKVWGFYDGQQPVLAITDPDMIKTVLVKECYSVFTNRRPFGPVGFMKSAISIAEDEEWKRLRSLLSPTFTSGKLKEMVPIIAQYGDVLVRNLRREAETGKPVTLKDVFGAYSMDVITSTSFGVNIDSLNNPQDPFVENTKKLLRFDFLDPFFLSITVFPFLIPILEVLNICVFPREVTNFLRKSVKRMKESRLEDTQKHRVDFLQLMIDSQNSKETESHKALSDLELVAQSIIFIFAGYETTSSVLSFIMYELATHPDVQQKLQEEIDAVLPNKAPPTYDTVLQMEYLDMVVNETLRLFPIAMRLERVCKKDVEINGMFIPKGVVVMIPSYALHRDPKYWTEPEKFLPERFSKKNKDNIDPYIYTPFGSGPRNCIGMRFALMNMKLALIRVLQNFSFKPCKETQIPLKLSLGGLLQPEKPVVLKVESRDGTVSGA
# Experimental: (§1) Experimental Example 6: CYP Enzyme Inhibition Test CYP450 is the most important enzyme system in drug metabolism. The enzymes involved in metabolism interact with drugs, and the most important ones are CYP1A2, CYP2D6 and CYP3A4. P450-Glo™ CYP1A2 Screening System, Vivid® CYP2D6 Cyan Screening Kit and Vivid® CYP3A4 Red Screening Kit were used in this test, and the inhibitory effects of the compounds on CYP1A2, CYP2D6 and CYP3A4 were determined according to the instructions of the kit.
# CYP2D6 = target: T3, CYP2D6 (Homo sapiens, UniProt P10635); assay: CYP enzyme inhibition test, Vivid CYP2D6 Cyan Screening Kit; assay type: in vitro ADME; details: for inhibitory effect on CYP2D6: conclusion in words
# T3 construct: purchased
# T3 sequence (P10635 whole entry): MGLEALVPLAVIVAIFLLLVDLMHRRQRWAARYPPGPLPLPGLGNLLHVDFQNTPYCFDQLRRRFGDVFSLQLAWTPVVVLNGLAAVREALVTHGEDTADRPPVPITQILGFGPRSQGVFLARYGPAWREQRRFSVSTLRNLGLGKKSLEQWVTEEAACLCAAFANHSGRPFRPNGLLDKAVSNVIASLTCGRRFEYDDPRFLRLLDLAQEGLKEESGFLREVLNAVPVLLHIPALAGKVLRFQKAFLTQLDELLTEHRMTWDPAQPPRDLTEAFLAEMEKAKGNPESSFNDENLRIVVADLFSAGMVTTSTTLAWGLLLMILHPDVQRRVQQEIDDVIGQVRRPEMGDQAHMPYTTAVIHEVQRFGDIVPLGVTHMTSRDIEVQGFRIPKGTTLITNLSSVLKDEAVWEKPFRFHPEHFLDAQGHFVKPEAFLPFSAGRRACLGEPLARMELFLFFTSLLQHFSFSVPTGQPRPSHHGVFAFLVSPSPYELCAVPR
# Experimental: as §1
# CYP1A2 = target: T4, CYP1A2 (Homo sapiens, UniProt P05177); assay: CYP enzyme inhibition test, P450-Glo CYP1A2 Screening System; assay type: in vitro ADME; details: for inhibitory effect on CYP1A2: conclusion in words
# T4 construct: purchased
# T4 sequence (P05177 1-516): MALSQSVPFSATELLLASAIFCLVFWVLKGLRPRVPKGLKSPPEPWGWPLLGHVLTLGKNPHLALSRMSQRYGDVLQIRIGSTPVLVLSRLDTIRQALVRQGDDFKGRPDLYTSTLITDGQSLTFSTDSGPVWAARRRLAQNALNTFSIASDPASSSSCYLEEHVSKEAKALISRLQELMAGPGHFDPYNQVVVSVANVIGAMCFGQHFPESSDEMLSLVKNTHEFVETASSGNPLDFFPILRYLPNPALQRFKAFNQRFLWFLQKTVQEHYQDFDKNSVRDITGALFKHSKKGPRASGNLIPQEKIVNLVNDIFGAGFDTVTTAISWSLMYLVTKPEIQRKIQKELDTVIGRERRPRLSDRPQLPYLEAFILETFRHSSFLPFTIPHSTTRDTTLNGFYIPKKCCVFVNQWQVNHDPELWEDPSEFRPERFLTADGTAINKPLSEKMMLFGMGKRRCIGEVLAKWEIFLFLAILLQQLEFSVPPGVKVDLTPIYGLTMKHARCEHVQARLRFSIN
# Experimental: as §1
EC50 (hNLRP3 inflammasome),IC50 (CYP3A4),inhibitory effect on CYP3A4 (CYP3A4),IC50 (CYP2D6),inhibitory effect on CYP2D6 (CYP2D6),IC50 (CYP1A2),inhibitory effect on CYP1A2 (CYP1A2),SMILES,pIC50 (hERG potassium channel)
0.23 µM,> 10 µM,no apparent inhibitory effects,> 10 µM,no apparent inhibitory effects,> 10 µM,no apparent inhibitory effects,"COC(C)(C)CNc1cc(N)nc2cc(-c3ccn[nH]3)sc12 [Compound 111, N^7-(2′-methoxy-2′-methylpropyl)-2-(1H-pyrazol-5-yl)thieno[3,2-b]pyridine-5,7-diamine]",< 5.00
0.28 µM,> 10 µM,no apparent inhibitory effects,> 10 µM,no apparent inhibitory effects,> 10 µM,no apparent inhibitory effects,"Nc1cc(NC2COC2)c2sc(-c3ccn[nH]3)cc2n1 [Compound 112, N^7-(oxetan-3-yl)-2-(1H-pyrazol-5-yl)thieno[3,2-b]pyridine-5,7-diamine]",< 5.00
